Among the data in ChEMBL document CHEMBL5325427 are IC50 values, retold here.

For this assay, the system named is SARS-CoV-2. The experiment in a line: Antiviral activity against SARS CoV-2 DG614G infected human Vero cells overexpressing ACE2 compound preincubated with cells for 1 hr followed by viral infection and measured after 24 hrs by flow cytometry analysis. The settings on record: Severe acute respiratory syndrome coronavirus 2, DG614G. It is filed as functional, organism-based.

≈ marks a conversion by molar mass, not a printed value.

The molecule `COc1ccc2[nH]c3c(c2c1)C[C@]1(OC)CC[C@H]2c4[nH]c5ccccc5c4CCN2[C@@H]1C3` gave an IC50 of 0.06 µg/mL (≈ 0.14 µM).

As a reminder, the IC50 is the concentration at which inhibition is half-maximal.
